Results published in patent US20240246932A1 (Merck Sharp & Dohme LLC, priority 2021, published 2024).

Biological target: human NaV 1.8 channels stably expressed in HEK 293 cells (Homo sapiens (Human), UniProt Q9Y5Y9)
Assay: Nav1.8 Qube automated patch-clamp assay
Type: cell-based
Conditions: human NaV1.8 in HEK 293 cells, whole-cell voltage clamp, room temperature; read-out: IC50 values (nM) for Examples in the Nav1.8 Qube Assay
Procedure: Compounds were tested on human NaV 1.8 and NaV1.5 channels stably expressed in human embryo kidney (HEK) 293 cells. Sodium current measurements on Qube® were conducted as follows: automated 384-well patch-clamp assays on the Qube® platform (Sophion Biosciences) were used to measure the inhibition of sodium flow through human NaV1.8 and NaV1.5 channels. Whole-cell voltage-clamp recordings were performed in QChips® (Sophion Biosciences) at room temperature. NaV1.8 current measurements on Qube® were obtained as follows: NaV1.8 currents were elicited with a 10 second 1 Hertz (Hz) pulse train from a holding potential of −90 millivolts (mV), delivered to the cells once per minute in the control condition (DMSO only) and after compound addition. The 1 hertz pulse train stimulation consisted of ten test pulses to 10 millivolt (mV) for 20 milliseconds (ms), each of which was followed by a 980 millisecond repolarization to −67 millivolts. At the end of the 10 second pulse train stimulation, a 5 second hyperpolarization step to −100 millivolt (mV) was used to recover NaV1.8 from fast inactivation. The peak currents elicited by the 1st and 10th test pulses were used to determine IC50 values for resting inhibition and inactivated state inhibition. NaV1.5 current measurements on Qube® were obtained as follows: NaV1.5 currents were elicited with a 20 second 3 Hertz pulse train in the control condition (DMSO only) and after compound addition. The pulse train consisted of sixty 20 millisecond test pulses to 0 millivolt from a holding potential of −80 millivolt (mV). The average peak currents elicited by the last 3 test pulses were used to determine IC50 values for NaV1.5 inhibition.
The following buffers were used for the Qube® recordings: External buffer for NaV1.8 Qube® recording: 150 NaCl, 2 CaCl2, 5 KCl, 1 MgCl2, 10 HEPES, 12 Dextrose; External buffer for Qube® NaV1.5 recording: 120 N-Methyl-D-Glucamine, 40 NaCl, 1 KCl, 2.7 CaCl2), 5 HEPES, 0.5 MgCl2; and Internal buffer for Qube® recording: 120 CsF, 30 CsCl, 10 EGTA, 5 HEPES, 5 NaF, 2 MgCl2.
For all Qube® experiments offline analysis was used to determine percent inhibition as a function of drug concentration. IC50 values were determined by fitting to the Hill equation.

Sequence of human NaV 1.8 channels stably expressed in HEK 293 cells (Q9Y5Y9 whole entry): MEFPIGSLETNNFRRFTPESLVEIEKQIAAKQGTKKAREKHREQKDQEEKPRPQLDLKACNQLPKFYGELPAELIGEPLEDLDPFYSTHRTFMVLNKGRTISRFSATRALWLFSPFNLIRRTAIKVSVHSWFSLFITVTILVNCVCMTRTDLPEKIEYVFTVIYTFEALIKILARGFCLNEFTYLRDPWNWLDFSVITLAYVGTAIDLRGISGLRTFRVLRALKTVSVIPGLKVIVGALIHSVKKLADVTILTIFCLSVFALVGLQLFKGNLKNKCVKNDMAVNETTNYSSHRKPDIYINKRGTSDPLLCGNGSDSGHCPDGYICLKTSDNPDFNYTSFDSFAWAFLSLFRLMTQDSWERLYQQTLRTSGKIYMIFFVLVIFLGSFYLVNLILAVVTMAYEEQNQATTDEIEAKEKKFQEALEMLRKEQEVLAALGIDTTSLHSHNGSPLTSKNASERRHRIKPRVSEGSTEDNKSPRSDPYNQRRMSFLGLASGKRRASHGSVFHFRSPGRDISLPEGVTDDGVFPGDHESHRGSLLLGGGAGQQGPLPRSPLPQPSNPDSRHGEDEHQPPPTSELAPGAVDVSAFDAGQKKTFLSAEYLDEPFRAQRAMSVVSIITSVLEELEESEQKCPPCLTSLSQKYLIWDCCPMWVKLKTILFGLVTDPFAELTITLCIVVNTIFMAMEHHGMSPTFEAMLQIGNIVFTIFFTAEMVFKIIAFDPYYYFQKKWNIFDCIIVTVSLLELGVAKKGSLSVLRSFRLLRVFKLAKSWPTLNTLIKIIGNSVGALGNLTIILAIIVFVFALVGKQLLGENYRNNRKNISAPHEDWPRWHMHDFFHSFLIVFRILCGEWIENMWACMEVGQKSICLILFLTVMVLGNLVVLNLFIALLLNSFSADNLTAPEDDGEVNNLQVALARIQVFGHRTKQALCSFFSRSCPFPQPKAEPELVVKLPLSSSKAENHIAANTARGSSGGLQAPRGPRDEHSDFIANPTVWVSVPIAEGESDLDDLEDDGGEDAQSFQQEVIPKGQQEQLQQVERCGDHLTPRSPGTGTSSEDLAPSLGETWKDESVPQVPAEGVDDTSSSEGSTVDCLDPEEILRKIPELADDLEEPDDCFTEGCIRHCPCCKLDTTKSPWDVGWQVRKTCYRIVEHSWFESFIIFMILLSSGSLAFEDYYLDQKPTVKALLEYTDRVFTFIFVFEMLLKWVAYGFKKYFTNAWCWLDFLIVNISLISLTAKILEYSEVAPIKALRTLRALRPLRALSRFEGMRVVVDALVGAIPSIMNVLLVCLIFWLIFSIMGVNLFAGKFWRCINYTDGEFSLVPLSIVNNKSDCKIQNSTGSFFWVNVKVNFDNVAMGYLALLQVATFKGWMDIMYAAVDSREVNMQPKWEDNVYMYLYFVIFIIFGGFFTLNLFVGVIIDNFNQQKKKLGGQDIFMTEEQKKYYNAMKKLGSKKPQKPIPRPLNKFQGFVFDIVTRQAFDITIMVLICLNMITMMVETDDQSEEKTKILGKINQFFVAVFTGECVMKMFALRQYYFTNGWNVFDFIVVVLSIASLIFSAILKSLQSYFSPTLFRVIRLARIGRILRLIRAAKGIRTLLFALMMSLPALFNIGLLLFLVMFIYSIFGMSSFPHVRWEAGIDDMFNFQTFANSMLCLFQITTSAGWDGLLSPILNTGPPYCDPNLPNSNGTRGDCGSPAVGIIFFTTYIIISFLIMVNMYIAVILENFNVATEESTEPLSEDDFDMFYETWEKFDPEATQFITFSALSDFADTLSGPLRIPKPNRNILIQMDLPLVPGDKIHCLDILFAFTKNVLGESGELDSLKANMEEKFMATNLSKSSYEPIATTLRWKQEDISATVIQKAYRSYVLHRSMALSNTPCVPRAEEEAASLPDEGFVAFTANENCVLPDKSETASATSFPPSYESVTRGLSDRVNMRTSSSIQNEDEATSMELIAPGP

IC50 | SMILES
4.59 nM | C[C@@H]1C(=O)NCCN1C(=O)NC(c1ccc(Cl)c(C(F)(F)F)n1)c1ccc(F)c(Cl)c1F (single isomer, unassigned) [Example 77A, (2R)-N-((R or S)-(3-chloro-2,4-difluorophenyl)(5-chloro-6-(trifluoromethyl)pyridin-2-yl)methyl)-2-methyl-3-oxopiperazine-1-carboxamide]
1320 nM | C[C@@H]1C(=O)NCCN1C(=O)NC(c1cnc(OC(F)F)nc1)c1ccc(F)c(Cl)c1F (single isomer, unassigned) [Example 74B, (2R)-N-((S or R)-(3-chloro-2,4-difluorophenyl)(2-(difluoromethoxy)pyrimidin-5-yl)methyl)-2-methyl-3-oxopiperazine-1-carboxamide]
3.59 nM | C[C@@H]1C(=O)NCCN1C(=O)NC(c1ccc(F)c(Cl)c1)c1cc(C(F)(F)F)nn1C (single isomer, unassigned) [Example 86A, (2R)-N-((R or S)-(3-chloro-4-fluoro-phenyl)(1-methyl-3-(trifluoro-methyl)-1H-pyrazol-5-yl)methyl)-2-methyl-3-oxopiperazine-1-carboxamide]
195 nM | C[C@@H]1C(=O)NCCN1C(=O)NC(c1ccc(F)c(Cl)c1)c1cccc(OC(F)F)n1 (single isomer, unassigned) [Example 72A]
1.38 nM | C[C@@H]1C(=O)NCCN1C(=O)NC(c1ccc(Cl)c(F)c1)c1ccc(F)c(C(F)(F)F)n1 (single isomer, unassigned) [Example 53B, (2R)-N-((S or R)-(4-chloro-3-fluoro-phenyl)(5-fluoro-6-(trifluoromethyl)pyridin-2-yl)methyl)-2-methyl-3-oxopiperazine-1-carboxamide]
1.02 nM | C[C@@H]1C(=O)NCCN1C(=O)NC(c1ccc(OC(F)(F)F)c(F)c1)c1ccc(C#N)c(C(F)(F)F)n1 (single isomer, unassigned) [Example 61A]
25.3 nM | C[C@@H]1C(=O)NCCN1C(=O)NC(c1ccc(F)c(Cl)c1)c1cccc(OC(F)F)n1 (single isomer, unassigned) [Example 72B]
89.3 nM | C[C@@H]1C(=O)NCCN1C(=O)NC(c1cnn(-c2ccc(F)cc2)c1)c1ccc(F)c(Cl)c1F (single isomer, unassigned) [Example 65B, (2R)-N-((S or R)-(3-chloro-2,4-difluoro-phenyl)(1-(4-fluoro-phenyl)-1H-pyrazol-4-yl)methyl)-2-methyl-3-oxopiperazine-1-carboxamide]
3.83 nM | C[C@@H]1C(=O)NCCN1C(=O)NC(c1ccc(OC(F)(F)F)c(F)c1)c1ccc(C#N)c(C(F)(F)F)n1 (single isomer, unassigned) [Example 61B]
5.47 nM | C[C@@H]1C(=O)NCCN1C(=O)NC(c1ccc(F)c(Cl)c1)c1cc(C(F)(F)F)n[nH]1 (single isomer, unassigned) [Example 85B]
10.8 nM | C[C@@H]1C(=O)NCCN1C(=O)NC(c1ccc(OC(F)(F)F)cc1)c1cc(C(F)(F)F)n[nH]1 (single isomer, unassigned) [Example 87B, (2R)-2-methyl-3-oxo-N-((S or R)-(4-(trifluoromethoxy)phenyl)(3-(trifluoromethyl)-1H-pyrazol-5-yl)methyl)piperazine-1-carboxamide]
5.18 nM | C[C@@H]1C(=O)NCCN1C(=O)NC(c1ccc(C#N)cc1)c1ccc(Cl)c(C(F)(F)F)n1 (single isomer, unassigned) [Example 76A]
3.14 nM | C[C@@H]1C(=O)NCCN1C(=O)NC(c1cnc(C(F)(F)F)c(Cl)c1)c1ccc(Cl)c(C(F)(F)F)n1 (single isomer, unassigned) [Example 83B]
89.5 nM | C[C@@H]1C(=O)NCCN1C(=O)NC(c1ccc(C(C)(F)F)nc1)c1ccc(F)c(Cl)c1F (single isomer, unassigned) [Example 75A]

Second part, the compound before the results:

SMILES | IC50
C[C@@H]1C(=O)NCCN1C(=O)NC(c1ccc(C(F)F)nc1)c1ccc(F)c(Cl)c1F (single isomer, unassigned) [Example 32A, (2R)-N-((R or S)-(3-chloro-2,4-difluoro-phenyl)(6-(difluoro-methyl)pyridin-3-yl)methyl)-2-methyl-3-oxopiperazine-1-carboxamide] | 96.8 nM
C[C@@H]1C(=O)NCCN1C(=O)NC(c1ccc(Cl)cc1)c1ccc(OCC(F)(F)F)nc1 (single isomer, unassigned) [Example 5A, (2R)-N-((R or S)-(4-chlorophenyl)(6-(2,2,2-trifluoro-ethoxy)pyridin-3-yl)methyl)-2-methyl-3-oxopiperazine-1-carboxamide] | 17.6 nM
C[C@H]1CN(C(=O)NC(c2ccc(F)c(Cl)c2)c2cccc(C(F)(F)F)n2)CC(=O)N1 (single isomer, unassigned) [Example 46A, (3S)-N-((R or S)-(3-chloro-4-fluoro-phenyl)(6-(trifluoro-methyl)pyridin-2-yl)methyl)-3-methyl-5-oxopiperazine-1-carboxamide] | 924 nM
C[C@@H]1C(=O)NCCN1C(=O)NC(c1cnc(C(F)(F)F)nc1)c1ccc(F)c(Cl)c1F (single isomer, unassigned) [Example 30B, (2R)-N-((S or R)-(3-chloro-2,4-difluoro-phenyl)(2-(trifluoro-methyl)pyrimidin-5-yl)methyl)-2-methyl-3-oxopiperazine-1-carboxamide] | 9.18 nM
C[C@@H]1C(=O)NCCN1C(=O)NC(c1ccc(OCC(F)(F)F)nc1)c1ccc(F)c(Cl)c1F (single isomer, unassigned) [Example 1B] | 30.9 nM
C[C@@H]1C(=O)NCCN1C(=O)NC(c1ccc(C(F)F)nc1)c1ccc(F)c(Cl)c1F (single isomer, unassigned) [Example 32B, (2R)-N-((s or R)-(3-chloro-2,4-difluoro-phenyl)(6-(difluoro-methyl)pyridin-3-yl)methyl)-2-methyl-3-oxopiperazine-1-carboxamide] | 13 nM
C[C@@H]1C(=O)NCCN1C(=O)NC(c1ccc(OCC(F)(F)F)nc1)c1ccc(F)c(Cl)c1F (single isomer, unassigned) [Example 1A] | 1.09 nM
C[C@@H]1C(=O)NCCN1C(=O)NC(c1ccc(OC(F)(F)F)c(F)c1)c1cnc(C(F)(F)F)c(Cl)c1 (single isomer, unassigned) [Example 21B, (2R)-N-((S or R)-(5-chloro-6-(trifluoro-methyl)pyridin-3-yl)(3-fluoro-4-(trifluoro-methoxy)phenyl)methyl)-2-methyl-3-oxo-piperazine-1-carboxamide] | 7.71 nM
C[C@@H]1C(=O)NCCN1C(=O)NC(c1cnc(C(F)(F)F)c(Cl)c1)c1ccc(F)c(Cl)c1F (single isomer, unassigned) [Example 35, (2R)-N-((R or S)-(3-chloro-2,4-difluorophenyl)(5-chloro-6-(trifluoromethyl)pyridin-3-yl)methyl)-2-methyl-3-oxopiperazine-1-carboxamide] | 1.13 nM
C[C@@H]1C(=O)NCCN1C(=O)NC(c1ccc(OC(F)(F)F)nc1)c1ccc(F)c(Cl)c1F (single isomer, unassigned) [Example 4A, (2R)-N-((R or S)-(3-chloro-2,4-difluorophenyl)(6-(trifluoromethoxy)pyridin-3-yl)methyl)-2-methyl-3-oxopiperazine-1-carboxamide] | 3.9 nM
C[C@@H]1C(=O)NCCN1C(=O)NC(c1ccc(OC(F)(F)F)c(F)c1)c1cnc(C(F)(F)F)c(Cl)c1 (single isomer, unassigned) [Example 21A, (2R)-N-((R or S)-(5-chloro-6-(trifluoro-methyl)pyridin-3-yl)(3-fluoro-4-(trifluoromethoxy)phenyl)methyl)-2-methyl-3-oxopiperazine-1-carboxamide] | 1.45 nM
C[C@@H]1C(=O)NCCN1C(=O)NC(c1ccc(OCC(F)(F)F)nc1)c1ccc(F)c(Cl)c1 (single isomer, unassigned) [Example 3B, (2R)-N-((S or R)-(3-chloro-4-fluorophenyl)(6-(2,2,2-trifluoro-ethoxy)pyridin-3-yl)methyl)-2-methyl-3-oxopiperazine-1-carboxamide] | 21.9 nM
C[C@@H]1C(=O)NCCN1C(=O)NC(c1ccc(C#N)c(Cl)c1)c1cnc(C(F)(F)F)c(Cl)c1 (single isomer, unassigned) [Example 24B, (2R)-N-((S or R)-(3-chloro-4-cyano-phenyl)(5-chloro-6-(trifluoromethyl)pyridin-3-yl)methyl)-2-methyl-3-oxopiperazine-1-carboxamide] | 2.84 nM
